Experimental data taken from patent publication US9920073B2, “Compositions useful for inhibiting HIV-1 infection and methods using same” (Drexel University, priority 2013, dated 2018).
Read-outs that look alike come from different tables or passages of the source.

Assays:
[1] = system: attachment of HIV-1HxBc2 to U87-CD+-CXCR4+ cells; assay: Temperature shift assay (viral attachment); assay type: cell-based
Method: The entry process can be divided into two temperature-dependent stages, with receptor and coreceptor binding occurring over the temperature range 0-37° C., while the fusion process only occurs at temperatures above 25° C. (Frey, et al., 1995, J. Virol. 69:1462-1472). Based upon differential ranges in temperatures at which binding and fusion/entry occur, a novel assay was developed to detect viral attachment in the presence or absence of inhibitors. Recombinant single-round infective HIV-1 virions are incubated with permissive cells at 4° C. for 2 hours to only allow the initial receptor/coreceptor engagement. Unattached virions, and the compound, are then removed by washing the cells with cold media followed by centrifugation at 1200 rpm for 4 min at 4° C. Cells are replenished with fresh media and transferred to 37° C. After 48 hour of incubation, the level of infection is measured by a luciferase activity as in the standard single-round infection assay. […] Conversely, the small molecule CD4-mimetic NBD-556, which is known to disrupt the gp120-CD4 interaction, reduces the level of infection to 40% of vehicle (DMSO) alone (FIG. 11). […] Moreover, this analysis may be extended to encompass viruses that utilize CCR5 for entry.

HIV-1JR-CSF = assay: microbe, parasite or virus in culture; assay type: cell-based
[2] = system: amphotropic murine leukemia virus (AMLV); assay: microbe, parasite or virus in culture; assay type: cell-based; conditions: single round infection assay, in words
HIV-1HxBc2 = assay: microbe, parasite or virus in culture; assay type: cell-based
HIV-1 isolate AC10.0.29 = assay: microbe, parasite or virus in culture; assay type: cell-based; conditions: Human immunodeficiency virus 1; isolate AC10.0.29, tropism R5
HIV-1 isolate BaL = assay: microbe, parasite or virus in culture; assay type: cell-based; conditions: Human immunodeficiency virus 1, tropism R5
HIV-1 isolate JR-FL = assay: microbe, parasite or virus in culture; assay type: cell-based; conditions: Human immunodeficiency virus 1, tropism R5
[3] = system: HIV-1 99UG_A07412M1 (subtype D); assay: HIV-1 replication assay in primary human PBMCs, isolate 99UG_A07412M1; assay type: cell-based
[4] = system: HIV-1 92UG037 (subtype A); assay: HIV-1 replication assay in primary human PBMCs, isolate 92UG037; assay type: cell-based
[5] = system: HIV-1 94US_3393IN (subtype B); assay: HIV-1 replication assay in primary human PBMCs, isolate 94US_3393IN
[6] = system: HIV-1 98US_MSC5016 (subtype C); assay: HIV-1 replication assay in primary human PBMCs, isolate 98US_MSC5016; assay type: cell-based
[7] = system: HIV-1 91US004 (subtype B); assay: HIV-1 replication assay in primary human PBMCs, isolate 91US004; assay type: cell-based
HIV-2 CDC310319 = assay: Replication assay in primary human PBMCs, HIV-2 isolate; assay type: cell-based
in vitro = assay type: cell-based; conditions: human
Method: Moreover, this assay was performed using healthy, primary cells to gain further insight into potential toxicities of the compound towards natural target cells. Additionally, as a key issue in the development of novel HIV drugs is their ability to inhibit the replication of genetically diverse isolates (especially isolates from the most globally prevalent subtypes A, B, C, and D), it was chosen to assess the potency of SC26 to inhibit the replication of isolates from subtypes A, B, C, and D in primary human peripheral blood mononuclear cells (PBMCs). Concomitantly, toxicity of SC26 to the PBMCs was assessed using an MTT assay. As can be observed from the IC50 values, the potency of SC26 against different isolates ranges quite dramatically, most likely reflecting differences in the binding site between subtypes.

[8] = Human immunodeficiency virus 1, read-out: IC50 JR-CSF
[9] = Human immunodeficiency virus 1, read-out: IC50 HxBc2
[10] = Human immunodeficiency virus 1, PBMC, human PBMCs

CC1(C)CC(NC(=O)C(=O)Nc2ccc(Cl)cc2)CC(C)(C)N1 [NBD-556, N1-(4-chlorophenyl)-N2-(2,2,6,6-tetramethyl-4-piperidinyl)-ethanediamide, reference compound]
level of infection relative to vehicle (DMSO) alone ([1]; virions with cells at 4° C. for 2 hours, wash, 37° C. 48 hour, FIG. 11): 40%

COc1cnc(Cl)c2[nH]cc(C(=O)C(=O)N3CC4CN(C(=O)c5ccccc5)CC4C3)c12 (stereo not shown) [SC07, 1-(5-benzoylhexahydropyrrolo[3,4-c]pyrrol-2(1H)-yl)-2-(7-chloro-4-methoxy-1H-pyrrolo[2,3-c]pyridin-3-yl)ethane-1,2-dione]
IC50 (HIV-1JR-CSF; [8]): 980 ± 60 nM | specificity to HIV-1 (inhibition of AMLV-pseudotyped HIV-1) [2]: no inhibition of AMLV-pseudotyped HIV-1 | IC50 (HIV-1HxBc2; [9]): 16800 ± 6200 nM

COc1ncc(OC)c2c(C(=O)C(=O)N3CC4CN(C(=O)c5ccccc5)CC4C3)c[nH]c12 (stereo not shown) [SC08, 1-(5-benzoylhexahydropyrrolo[3,4-c]pyrrol-2(1H)-yl)-2-(4,7-dimethoxy-1H-pyrrolo[2,3-c]pyridin-3-yl)ethane-1,2-dione]
IC50 (HIV-1JR-CSF; read-out: IC50 JR-CSF, single round infection assay): 90 ± 10 nM | specificity to HIV-1 (inhibition of AMLV-pseudotyped HIV-1) [2]: no inhibition of AMLV-pseudotyped HIV-1 | IC50 (HIV-1HxBc2; [9]): 190 ± 80 nM

COc1cnc(-n2cnc(C)n2)c2[nH]cc(C(=O)C(=O)N3CC4C=NN(c5ccccc5)C4C3)c12 (stereo not shown) [SC12, 1-(4-methoxy-7-(3-methyl-1H-1,2,4-triazol-1-yl)-1H-pyrrolo[2,3-c]pyridin-3-yl)-2-(1-phenyl-3a,4,6,6a-tetrahydropyrrolo[3,4-c]pyrazol-5(1H)-yl)ethane-1,2-dione]
IC50 (HIV-1 isolate AC10.0.29): 488 ± 47 nM | IC50 (HIV-1JR-CSF; Human immunodeficiency virus 1): 13 ± 3 nM | IC50 (HIV-1JR-CSF; [8]): 8 ± 2 nM | IC50 (HIV-1 isolate BaL): 3500 ± 300 nM | IC50 (HIV-1 isolate JR-FL): 106 ± 52 nM | IC50 (HIV-1HxBc2; Human immunodeficiency virus 1): 24 ± 3 nM | IC50 (HIV-1HxBc2; [9]): 80 ± 20 nM | block of viral attachment ([1]; temperature shift assay, in words): does not appear to block viral attachment

COc1cnc(-n2cnc(C)n2)c2[nH]cc(C(=O)C(=O)NCC3CN(C(=O)c4ccccc4)C3)c12 [SC14, N-((1-benzoylazetidin-3-yl)methyl)-2-(4-methoxy-7-(3-methyl-1H-1,2,4-triazol-1-yl)-1H-pyrrolo[2,3-c]pyridin-3-yl)-2-oxoacetamide]
IC50 (HIV-1JR-CSF; [8]): 2500 ± 400 nM | IC50 (HIV-1HxBc2; [9]): 1200 ± 400 nM

COc1cnc(-n2cnc(C)n2)c2[nH]cc(C(=O)C(=O)N3CC(CCC(=O)c4ccccc4)C3)c12 [SC15, 1-(4-methoxy-7-(3-methyl-1H-1,2,4-triazol-1-yl)-1H-pyrrolo[2,3-c]pyridin-3-yl)-2-(3-(3-oxo-3-phenylpropyl)azetidin-1-yl)ethane-1,2-dione]
IC50 (HIV-1JR-CSF; [8]): 2 ± 0.1 nM | IC50 (HIV-1HxBc2; [9]): 3 ± 0.5 nM

COc1cnc(-n2cnc(C)n2)c2[nH]cc(C(=O)C(=O)N3CC(CSC(=O)c4ccccc4)C3)c12 [SC16, S-((1-(2-(4-methoxy-7-(3-methyl-1H-1,2,4-triazol-1-yl)-1H-pyrrolo[2,3-c]pyridin-3-yl)-2-oxoacetyl)azetidin-3-yl)methyl) benzothioate]
IC50 (HIV-1JR-CSF; [8]): 100 ± 20 nM | IC50 (HIV-1HxBc2; [9]): 150 ± 30 nM

COc1cnc(-n2cnc(C)n2)c2[nH]cc(C(=O)C(=O)N(C)C3CN(C(=O)c4ccccc4)C3)c12 [SC18, N-(1-benzoylazetidin-3-yl)-2-(4-methoxy-7-(3-methyl-1H-1,2,4-triazol-1-yl)-1H-pyrrolo[2,3-c]pyridin-3-yl)-N-methyl-2-oxoacetamide]
IC50 (HIV-1JR-CSF; [8]): 1300 ± 200 nM | IC50 (HIV-1HxBc2; [9]): 102000 ± 160000 nM

COc1cnc(-n2cnc(C)n2)c2[nH]cc(C(=O)C(=O)N3CC4CN(C(=O)C5=CCCCC5)CC4C3)c12 (stereo not shown) [SC26, 1-(5-(cyclohex-1-ene-1-carbonyl)hexahydropyrrolo[3,4-c]pyrrol-2(1H)-yl)-2-(4-methoxy-7-(3-methyl-1H-1,2,4-triazol-1-yl)-1H-pyrrolo[2,3-c]pyridin-3-yl)ethane-1,2-dione]
Antiviral index (TC50/IC50) [3]: >204 | IC50 [3, 10]: 490 ± 60 nM | IC50 (HIV-1JR-CSF; [8]): 2 ± 0.1 nM | Antiviral index (TC50/IC50) [4]: >3.97 | IC50 [4, 10]: 25200 ± 6900 nM | Antiviral index (TC50/IC50) [5]: >166,666 | Antiviral index (TC50/IC50) [6]: >25.6 | IC50 [6, 10]: 3900 ± 800 nM | Antiviral index (TC50/IC50) [7]: >513 | IC50 [7, 10]: 195 ± 12 nM | IC50 (HIV-2 CDC310319; Human immunodeficiency virus 2, PBMC, HIV-2 CDC310319, human PBMCs): > 100000 nM | effect on the replication of an HIV-2 isolate (HIV-2 CDC310319; human PBMCs, in words): no effect | IC50 (HIV-1HxBc2; Human immunodeficiency virus 1): 0.6 ± 0.01 nM | IC50 (HIV-1HxBc2; [9]): 0.6 ± 0.08 nM | CC50 at 7 days (in vitro): > 100000 nM

COc1cnc(-n2cnc(C)n2)c2[nH]cc(C(=O)C(=O)N3CC=C(CNC(=O)c4ccccc4)CC3)c12 [SC45, N-((1-(2-(4-methoxy-7-(3-methyl-1H-1,2,4-triazol-1-yl)-1H-pyrrolo[2,3-c]pyridin-3-yl)-2-oxoacetyl)-1,2,3,6-tetrahydropyridin-4-yl)methyl)benzamide]
IC50 (HIV-1JR-CSF; [8]): 150 ± 9 nM | IC50 (HIV-1HxBc2; [9]): 100 ± 30 nM
